Laboratory results from ChEMBL document CHEMBL3885881, “DrugMatrix”.

Species: Rattus norvegicus
Test: DrugMatrix - Regimen: Daily Repeat
Type: toxicity, organism-based, Sprague-Dawley
Set-up: regimen Daily Repeat, gender Male, age 6-8 weeks
Conditions: in vivo, po, route oral GAVAGE, vehicle 100 % SALINE; for TOTAL BILIRUBIN / URIC ACID / ALANINE AMINOTRANSFERASE / ALBUMIN / ALKALINE PHOSPHATASE / ASPARTATE AMINOTRANSFERASE / BLOOD UREA NITROGEN / CARBON DIOXIDE / CHLORIDE / CHOLESTEROL / CREATINE PHOSPHOKINASE / CREATININE / GLUCOSE / LIPASE / PHOSPHORUS / POTASSIUM / SODIUM / TOTAL PROTEIN: tissue Plasma; for ABSOLUTE BASOPHIL / ABSOLUTE EOSINOPHIL / ABSOLUTE LYMPHOCYTE / ABSOLUTE MONOCYTE / BASOPHIL / EOSINOPHIL / ERYTHROCYTE COUNT / HEMATOCRIT / HEMOGLOBIN / LEUKOCYTE COUNT / LYMPHOCYTE / MEAN CORPUSCULAR HEMOGLOBIN / MEAN CORPUSCULAR HEMOGLOBIN CONCENTRATION / MEAN CORPUSCULAR VOLUME / MONOCYTE / NEUTROPHIL / PLATELET COUNT: tissue Blood
[1] = 0 mg/kg, 120 h, dose level Control, time 5 day
[2] = 0 mg/kg, […], dose level Control, time 14 day
[3] = 2 mg/kg, 72 h, dose level High, time 3 day
[4] = 2 mg/kg, 120 h, dose level High, time 5 day
[5] = 2 mg/kg, […], dose level High, time 14 day

## COc1cccc2c1C(=O)c1c(O)c3c(c(O)c1C2=O)C[C@@](O)(C(C)=O)C[C@@H]3O[C@H]1C[C@H](N)[C@H](O)[C@H](C)O1 [DAUNORUBICIN]
[1]
  TOTAL BILIRUBIN: 0.37 mg/dL
  URIC ACID: 0.97 mg/dL
[2]
  ABSOLUTE BASOPHIL: 93.3 cells/µL
  ABSOLUTE EOSINOPHIL: 80 cells/µL
  ABSOLUTE LYMPHOCYTE: 6890 cells/µL
  ABSOLUTE MONOCYTE: 170 cells/µL
  BASOPHIL: 1%
  EOSINOPHIL: 0.83%
  ERYTHROCYTE COUNT: 7.03 x10E6/uL
  HEMATOCRIT: 43.4%
  HEMOGLOBIN: 14.83 G/DL
  LEUKOCYTE COUNT: 8.94 x10E3/uL
  LYMPHOCYTE: 77.93%
  MEAN CORPUSCULAR HEMOGLOBIN: 21.1 pg
  MEAN CORPUSCULAR HEMOGLOBIN CONCENTRATION: 34.17 G/DL
  MEAN CORPUSCULAR VOLUME: 61.77 fL
  MONOCYTE: 1.33%
  NEUTROPHIL: 18%
  PLATELET COUNT: 1097.33 x10E3/uL
  ALANINE AMINOTRANSFERASE: 32 u/L
  ALBUMIN: 3.83 G/DL
  ALKALINE PHOSPHATASE: 334.67 u/L
  ASPARTATE AMINOTRANSFERASE: 69.33 u/L
  BLOOD UREA NITROGEN: 16 mg/dL
  CARBON DIOXIDE: 40 mmol/L
  CHLORIDE: 105.67 MEQ/L
  CHOLESTEROL: 70.33 mg/dL
  CREATINE PHOSPHOKINASE: 144.67 u/L
  CREATININE: 0.3 mg/dL
  GLUCOSE: 177.67 mg/dL
  LIPASE: 16.33 u/L
  PHOSPHORUS: 10.83 mg/dL
  POTASSIUM: 5.77 MEQ/L
  SODIUM: 143.33 MEQ/L
  TOTAL BILIRUBIN: 0.33 mg/dL
  TOTAL PROTEIN: 6.37 G/DL
  URIC ACID: 0.17 mg/dL
[3]
  ABSOLUTE BASOPHIL: 110 cells/µL
  ABSOLUTE EOSINOPHIL: 210 cells/µL
  ABSOLUTE LYMPHOCYTE: 7080 cells/µL
  ABSOLUTE MONOCYTE: 140 cells/µL
  BASOPHIL: 1.17%
  EOSINOPHIL: 2.47%
  ERYTHROCYTE COUNT: 6.67 x10E6/uL
  HEMATOCRIT: 42.37%
  HEMOGLOBIN: 13.97 G/DL
  LEUKOCYTE COUNT: 8.7 x10E3/uL
  LYMPHOCYTE: 80.87%
  MEAN CORPUSCULAR HEMOGLOBIN: 20.97 pg
  MEAN CORPUSCULAR HEMOGLOBIN CONCENTRATION: 33 G/DL
  MEAN CORPUSCULAR VOLUME: 63.57 fL
  MONOCYTE: 1.7%
  NEUTROPHIL: 13.37%
  PLATELET COUNT: 1161.67 x10E3/uL
  ALANINE AMINOTRANSFERASE: 34 u/L
  ALBUMIN: 3.9 G/DL
  ALKALINE PHOSPHATASE: 354 u/L
  ASPARTATE AMINOTRANSFERASE: 68 u/L
  BLOOD UREA NITROGEN: 16.67 mg/dL
  CARBON DIOXIDE: 36 mmol/L
  CHLORIDE: 104 MEQ/L
  CHOLESTEROL: 67.67 mg/dL
  CREATINE PHOSPHOKINASE: 219 u/L
  CREATININE: 0.4 mg/dL
  GLUCOSE: 175 mg/dL
  LIPASE: 11 u/L
  PHOSPHORUS: 12.2 mg/dL
  POTASSIUM: 6.47 MEQ/L
  SODIUM: 142.67 MEQ/L
  TOTAL BILIRUBIN: 0.37 mg/dL
  TOTAL PROTEIN: 6.43 G/DL
  URIC ACID: 1.17 mg/dL
[4]
  ABSOLUTE BASOPHIL: 75 cells/µL
  ABSOLUTE EOSINOPHIL: 40 cells/µL
  ABSOLUTE LYMPHOCYTE: 7990 cells/µL
  ABSOLUTE MONOCYTE: 140 cells/µL
  BASOPHIL: 0.9%
  EOSINOPHIL: 0.5%
  ERYTHROCYTE COUNT: 6.82 x10E6/uL
  HEMATOCRIT: 42.9%
  HEMOGLOBIN: 13.75 G/DL
  LEUKOCYTE COUNT: 9.39 x10E3/uL
  LYMPHOCYTE: 84.25%
  MEAN CORPUSCULAR HEMOGLOBIN: 20.2 pg
  MEAN CORPUSCULAR HEMOGLOBIN CONCENTRATION: 32.15 G/DL
  MEAN CORPUSCULAR VOLUME: 62.9 fL
  MONOCYTE: 1.5%
  NEUTROPHIL: 12.5%
  PLATELET COUNT: 1293.5 x10E3/uL
  ALANINE AMINOTRANSFERASE: 27.67 u/L
  ALBUMIN: 3.93 G/DL
  ALKALINE PHOSPHATASE: 361.67 u/L
  ASPARTATE AMINOTRANSFERASE: 66 u/L
  BLOOD UREA NITROGEN: 14.67 mg/dL
  CARBON DIOXIDE: 35 mmol/L
  CHLORIDE: 106.67 MEQ/L
  CHOLESTEROL: 68.67 mg/dL
  CREATINE PHOSPHOKINASE: 274.67 u/L
  CREATININE: 0.4 mg/dL
  GLUCOSE: 192.33 mg/dL
  LIPASE: 9 u/L
  PHOSPHORUS: 11.87 mg/dL
  POTASSIUM: 6.67 MEQ/L
  SODIUM: 146 MEQ/L
  TOTAL BILIRUBIN: 0.37 mg/dL
  TOTAL PROTEIN: 6.33 G/DL
  URIC ACID: 1.37 mg/dL
[5]
  ABSOLUTE BASOPHIL: 120 cells/µL
  ABSOLUTE EOSINOPHIL: 74 cells/µL
  ABSOLUTE LYMPHOCYTE: 8830 cells/µL
  ABSOLUTE MONOCYTE: 250 cells/µL
  BASOPHIL: 1.1%
  EOSINOPHIL: 0.66%
  ERYTHROCYTE COUNT: 7.41 x10E6/uL
  HEMATOCRIT: 45.06%
  HEMOGLOBIN: 15.1 G/DL
  LEUKOCYTE COUNT: 11 x10E3/uL
  LYMPHOCYTE: 80.4%
  MEAN CORPUSCULAR HEMOGLOBIN: 20.36 pg
  MEAN CORPUSCULAR HEMOGLOBIN CONCENTRATION: 33.46 G/DL
  MEAN CORPUSCULAR VOLUME: 60.78 fL
  MONOCYTE: 2%
  NEUTROPHIL: 15.02%
  PLATELET COUNT: 1090.8 x10E3/uL
  ALANINE AMINOTRANSFERASE: 31.8 u/L
  ALBUMIN: 3.88 G/DL
  ALKALINE PHOSPHATASE: 326.6 u/L
  ASPARTATE AMINOTRANSFERASE: 64.8 u/L
  BLOOD UREA NITROGEN: 16.6 mg/dL
  CARBON DIOXIDE: 42.4 mmol/L
  CHLORIDE: 106 MEQ/L
  CHOLESTEROL: 66.4 mg/dL
  CREATINE PHOSPHOKINASE: 203 u/L
  CREATININE: 0.4 mg/dL
  GLUCOSE: 167.6 mg/dL
  LIPASE: 12.4 u/L
  PHOSPHORUS: 9.42 mg/dL
  POTASSIUM: 6.3 MEQ/L
  SODIUM: 144.4 MEQ/L
  TOTAL BILIRUBIN: 0.4 mg/dL
  TOTAL PROTEIN: 6.36 G/DL
  URIC ACID: 0.04 mg/dL
